# In PubChem BioAssay AID2060501 (Molecular Pharmacology Branch, DTP, NCI, 2025):
# pIC50: −log10 of the molar value.
# Tested on: 282377-053-R-J1-PDC complex spheroids, viability
# Experiment: Anticancer human tumor 282377-053-R-J1-PDC patient-derived colon adenocarcinoma cell line growth inhibition [GQUAD]
# Conditions: for pIC50: curve of first compound; for viability, T/C: stronger effect = lower value
# In short: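 Viability of tumor cells grown as complex spheroids with endothelial and stromal cells, exposed to drug combinations. Top concentration at or near clinical Cmax (else 10 microM), diluted in half-log increments.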
# [1] = second compound 0.0316 µM, first compound 0.0316 µM
# [2] = second compound 0.0316 µM, first compound 0.1 µM
# [3] = second compound 0.0316 µM, first compound 0.316 µM
# [4] = second compound 0.0316 µM, first compound 1 µM
# [5] = second compound 0.0316 µM, first compound 3.16 µM
# [6] = second compound 0.0316 µM, first compound 10 µM
# [7] = second compound 0.1 µM, first compound 0.0316 µM
# [8] = second compound 0.1 µM, first compound 0.1 µM
# [9] = second compound 0.1 µM, first compound 0.316 µM
# [10] = second compound 0.1 µM, first compound 1 µM
# [11] = second compound 0.1 µM, first compound 3.16 µM
# [12] = second compound 0.1 µM, first compound 10 µM
# [13] = second compound 0.316 µM, first compound 0.0316 µM
# [14] = second compound 0.316 µM, first compound 0.1 µM
# [15] = second compound 0.316 µM, first compound 0.316 µM
# [16] = second compound 0.316 µM, first compound 1 µM
# [17] = second compound 0.316 µM, first compound 3.16 µM
# [18] = second compound 0.316 µM, first compound 10 µM
# [19] = second compound 1 µM, first compound 0.0316 µM
# [20] = second compound 1 µM, first compound 0.1 µM
# [21] = second compound 1 µM, first compound 0.316 µM
# [22] = second compound 1 µM, first compound 1 µM
# [23] = second compound 1 µM, first compound 3.16 µM
# [24] = second compound 1 µM, first compound 10 µM
# [25] = second compound 3.16 µM, first compound 0.0316 µM
# [26] = second compound 3.16 µM, first compound 0.1 µM
# [27] = second compound 3.16 µM, first compound 0.316 µM
# [28] = second compound 3.16 µM, first compound 1 µM
# [29] = second compound 3.16 µM, first compound 3.16 µM
# [30] = second compound 3.16 µM, first compound 10 µM
# [31] = second compound 10 µM, first compound 0.0316 µM
# [32] = second compound 10 µM, first compound 0.1 µM
# [33] = second compound 10 µM, first compound 0.316 µM
# [34] = second compound 10 µM, first compound 1 µM
# [35] = second compound 10 µM, first compound 3.16 µM
# [36] = second compound 10 µM, first compound 10 µM
# 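Further: spheroids exposed to compounds for 7 days before readout.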
# 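Wherever viability, T/C is given: percent of vehicle DMSO control viability with 100% = untreated-like growth.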
smiles,measurement,setting,value
CC1COCCN1c1cc(-c2ccnn2C)c2ccnc(-c3ccn[nH]3)c2n1 (stereo not drawn) + Cc1[nH]c2ccc(F)cc2c1-c1nc2c3cccnc3c3ncccc3c2[nH]1,pIC50,second compound 0.0316 µM,6.18
same,pIC50,second compound 0.1 µM,6.30
same,pIC50,second compound 0.316 µM,6.40
same,pIC50,second compound 1 µM,6.34
same,pIC50,second compound 3.16 µM,7.40
same,pIC50,second compound 10 µM,> 7.50
same,"viability, T/C",[1],83.8%
same,"viability, T/C",[2],82.6%
same,"viability, T/C",[3],73.3%
same,"viability, T/C",[4],36.4%
same,"viability, T/C",[5],27.5%
same,"viability, T/C",[6],20.9%
same,"viability, T/C",[7],79.3%
same,"viability, T/C",[8],85%
same,"viability, T/C",[9],56.5%
same,"viability, T/C",[10],37.3%
same,"viability, T/C",[11],24.2%
same,"viability, T/C",[12],19.7%
same,"viability, T/C",[13],103%
same,"viability, T/C",[14],77.5%
same,"viability, T/C",[15],49.4%
same,"viability, T/C",[16],37.7%
same,"viability, T/C",[17],30.5%
same,"viability, T/C",[18],17.6%
same,"viability, T/C",[19],87.2%
same,"viability, T/C",[20],79.3%
same,"viability, T/C",[21],59%
same,"viability, T/C",[22],31.9%
same,"viability, T/C",[23],21.5%
same,"viability, T/C",[24],18.8%
same,"viability, T/C",[25],52.9%
same,"viability, T/C",[26],38.6%
same,"viability, T/C",[27],12.8%
same,"viability, T/C",[28],8.91%
same,"viability, T/C",[29],4.88%
same,"viability, T/C",[30],4.03%
same,"viability, T/C",[31],35.6%
same,"viability, T/C",[32],23.9%
same,"viability, T/C",[33],9.76%
same,"viability, T/C",[34],5.71%
same,"viability, T/C",[35],3.51%
same,"viability, T/C",[36],2.86%
CC1COCCN1c1cc(C2(O)CC3CCC(C2)O3)c2cnn(-c3ccn[nH]3)c2n1 (stereo not drawn) + Cc1[nH]c2ccc(F)cc2c1-c1nc2c3cccnc3c3ncccc3c2[nH]1,pIC50,second compound 0.0316 µM,6.20
same,pIC50,second compound 0.1 µM,6.29
same,pIC50,second compound 0.316 µM,6.53
same,pIC50,second compound 1 µM,6.61
same,pIC50,second compound 3.16 µM,7.46
same,pIC50,second compound 10 µM,> 7.50
same,"viability, T/C",[1],81.3%
same,"viability, T/C",[2],73.1%
same,"viability, T/C",[3],71.7%
same,"viability, T/C",[4],35%
same,"viability, T/C",[5],25.7%
same,"viability, T/C",[6],17.6%
same,"viability, T/C",[7],88.2%
same,"viability, T/C",[8],85.7%
same,"viability, T/C",[9],59.6%
same,"viability, T/C",[10],34.1%
same,"viability, T/C",[11],25.6%
same,"viability, T/C",[12],16.6%
same,"viability, T/C",[13],71.5%
same,"viability, T/C",[14],88.2%
same,"viability, T/C",[15],47.8%
same,"viability, T/C",[16],35.2%
same,"viability, T/C",[17],24.7%
same,"viability, T/C",[18],16.2%
same,"viability, T/C",[19],71.7%
same,"viability, T/C",[20],65.5%
same,"viability, T/C",[21],45.4%
same,"viability, T/C",[22],25.4%
same,"viability, T/C",[23],16.4%
same,"viability, T/C",[24],9.51%
same,"viability, T/C",[25],52%
same,"viability, T/C",[26],28.9%
same,"viability, T/C",[27],11.3%
same,"viability, T/C",[28],5.76%
same,"viability, T/C",[29],3.99%
same,"viability, T/C",[30],3.21%
same,"viability, T/C",[31],31.2%
same,"viability, T/C",[32],16.5%
same,"viability, T/C",[33],8.68%
same,"viability, T/C",[34],2.7%
same,"viability, T/C",[35],2.23%
same,"viability, T/C",[36],2.03%
COc1ccc([C@@H](O)c2cc(-c3ncnc4cc(N5CCOCC5)ccc34)c(F)cc2Cl)nn1 + Cc1[nH]c2ccc(F)cc2c1-c1nc2c3cccnc3c3ncccc3c2[nH]1,pIC50,second compound 0.0316 µM,< 5.00
same,pIC50,second compound 0.1 µM,< 5.00
same,pIC50,second compound 0.316 µM,< 5.00
same,pIC50,second compound 1 µM,< 5.00
same,pIC50,second compound 3.16 µM,6.36
same,pIC50,second compound 10 µM,> 7.50
same,"viability, T/C",[1],101%
same,"viability, T/C",[2],91.3%
same,"viability, T/C",[3],102%
same,"viability, T/C",[4],73.9%
same,"viability, T/C",[5],76.3%
same,"viability, T/C",[6],63.8%
same,"viability, T/C",[7],107%
same,"viability, T/C",[8],101%
same,"viability, T/C",[9],97.9%
same,"viability, T/C",[10],84.9%
same,"viability, T/C",[11],72%
same,"viability, T/C",[12],61.1%
same,"viability, T/C",[13],87.8%
same,"viability, T/C",[14],93%
same,"viability, T/C",[15],73.8%
same,"viability, T/C",[16],93.7%
same,"viability, T/C",[17],75.3%
same,"viability, T/C",[18],60.6%
same,"viability, T/C",[19],86.5%
same,"viability, T/C",[20],88.5%
same,"viability, T/C",[21],94.7%
same,"viability, T/C",[22],97.1%
same,"viability, T/C",[23],88.2%
same,"viability, T/C",[24],57.4%
same,"viability, T/C",[25],75.7%
same,"viability, T/C",[26],68.6%
same,"viability, T/C",[27],47.2%
same,"viability, T/C",[28],42.8%
same,"viability, T/C",[29],33.2%
same,"viability, T/C",[30],15.9%
same,"viability, T/C",[31],44.8%
same,"viability, T/C",[32],47.4%
same,"viability, T/C",[33],33.6%
same,"viability, T/C",[34],26.3%
same,"viability, T/C",[35],19.6%
same,"viability, T/C",[36],21.1%
O=C(c1cc(Cc2n[nH]c(=O)c3ccccc23)ccc1F)N1CCN(C(=O)C2CC2)CC1 + Cc1[nH]c2ccc(F)cc2c1-c1nc2c3cccnc3c3ncccc3c2[nH]1,pIC50,second compound 0.0316 µM,< 5.00
same,pIC50,second compound 0.1 µM,< 5.00
same,pIC50,second compound 0.316 µM,< 5.00
same,pIC50,second compound 1 µM,< 5.00
same,pIC50,second compound 3.16 µM,< 5.00
same,pIC50,second compound 10 µM,5.81
same,"viability, T/C",[1],134%
same,"viability, T/C",[2],107%
same,"viability, T/C",[3],102%
same,"viability, T/C",[4],122%
same,"viability, T/C",[5],110%
same,"viability, T/C",[6],92%
same,"viability, T/C",[7],87.8%
same,"viability, T/C",[8],98.6%
same,"viability, T/C",[9],99.2%
same,"viability, T/C",[10],99.6%
same,"viability, T/C",[11],105%
same,"viability, T/C",[12],89%
same,"viability, T/C",[13],92.8%
same,"viability, T/C",[14],115%
same,"viability, T/C",[15],101%
same,"viability, T/C",[16],107%
same,"viability, T/C",[17],97.1%
same,"viability, T/C",[18],97%
same,"viability, T/C",[19],101%
same,"viability, T/C",[20],111%
same,"viability, T/C",[21],122%
same,"viability, T/C",[22],111%
same,"viability, T/C",[23],110%
same,"viability, T/C",[24],114%
same,"viability, T/C",[25],75.4%
same,"viability, T/C",[26],76.7%
same,"viability, T/C",[27],93%
same,"viability, T/C",[28],79.1%
same,"viability, T/C",[29],69.8%
same,"viability, T/C",[30],54.7%
same,"viability, T/C",[31],58.2%
same,"viability, T/C",[32],40.2%
same,"viability, T/C",[33],71.9%
same,"viability, T/C",[34],57.9%
same,"viability, T/C",[35],38.4%
same,"viability, T/C",[36],25.8%
